The test system of data set [1] is HCT-116. Kind of data set: Induction of apoptosis in human HCT-116 cells at 1 uM incubated for 72 hrs by APC-Annexin-V/7-AAD staining based flow cytometry relative to control. In kind it is functional.
A short description of data set [2]: Hepatotoxicity in male NSG mouse xenografted with human RPMI-8226 cells assessed as inflammatory infiltrates at 3 mg/kg, ip administered 3 times a week for 26 days and measured 48 hrs post last dose by H and E staining based assay. It is filed as toxicity, organism-based. Conditions: in vivo, 672 h, time 28 day.
A short description of data set [3]: Hepatotoxicity in male NSG mouse xenografted with human RPMI-8226 cells assessed as foci of bile ductular/oval cell proliferation at 3 mg/kg, ip administered 3 times a week for 26 days and measured 48 hrs post last dose by H and E staining based assay. In kind it is toxicity, organism-based, Bile duct. Conditions: in vivo, 672 h, time 28 day.
Data set [4] can be described thus: Hepatotoxicity in male NSG mouse xenografted with human RPMI-8226 cells assessed as serum AST level at 3 mg/kg, ip administered 3 times a week for 26 days and measured 48 hrs post last dose (reference value: 76 to 78 IU/L). Conditions: in vivo, 672 h, time 28 day. It is filed as toxicity, organism-based.
The nature of data set [5]: AUC(0 to t) in Sprague-Dawley rat at 3 mg/kg, iv measured for 24 hrs by LC-MS/MS analysis. It is filed as ADME, organism-based. Also on record: dose 3 mg/kg, time 24 hrs, route iv. Conditions: in vivo.
Data set [6] deals with MIA PaCa-2. In words: Antitumor activity against human MIA PaCa-2 cells xenografted in NSG mouse assessed as difference in tumor volume at 3 mg/kg, ip administered 3 times a week for 26 days and measured 48 hrs post last dose. In kind it is functional, organism-based. Conditions: time 28.0 day.
A short description of data set [7]: Hepatotoxicity in female NSG mouse xenografted with human RPMI-8226 cells assessed as foci of bile ductular/oval cell proliferation at 3 mg/kg, ip administered 3 times a week for 26 days and measured 48 hrs post last dose by H and E staining based assay. It is filed as toxicity, organism-based, Bile duct. Conditions: in vivo, 672 h, time 28 day.
Data set [8] can be described thus: Cytotoxicity against Normal human bronchial epithelial cells assessed as inhibition of cell growth at 10 uM incubated for 72 hrs by MTS assay relative to control. It is filed as toxicity, cell-based.
Data set [9] is described as follows: Hepatotoxicity in female NSG mouse xenografted with human RPMI-8226 cells assessed as eosinophilic degeneration at 3 mg/kg, ip administered 3 times a week for 26 days and measured 48 hrs post last dose by H and E staining based assay. It is filed as toxicity, organism-based. Conditions: in vivo, 672 h, time 28 day.
A further data set concerns RPMI-8226. In words: Induction of ER stress in human RPMI-8226 cells at 1 uM. In kind it is functional, cell-based.
For the next data set, the system named is KMS-12-PE. Kind of data set: Antiproliferative activity against human KMS-12-PE cells harboring wild type KRAS at 0.1 to 10000 nM incubated for 72 hrs by MTS assay. In kind it is functional, cell-based. Conditions: dose 0.1-10000 nM.
The species entered for another data set is Mus musculus. In words: Cytotoxicity against KPC mouse pancreatic cancer organoid ccmT4 at 1 uM incubated for 72 hrs by CellTiter-Glo luminescence based analysis. It is filed as functional, tissue-based.
The target of data set [10] is T1, Ras-related protein Rap-1A (Homo sapiens) (UniProt P62834).
T1 sequence (whole entry): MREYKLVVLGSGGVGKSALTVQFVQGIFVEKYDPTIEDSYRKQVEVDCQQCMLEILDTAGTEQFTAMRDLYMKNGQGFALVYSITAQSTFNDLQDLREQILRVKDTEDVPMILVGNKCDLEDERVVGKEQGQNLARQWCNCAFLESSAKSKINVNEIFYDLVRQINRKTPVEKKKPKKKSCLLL
In words: Inhibition of RAP-1A prenylation in human HCT-116 cells incubated for 48 hrs by Western blot analysis. Conditions: dose 10-1000 nM. In kind it is cell-based.

Data set [11] relates to HCT-116. Kind of data set: Induction of apoptosis in human HCT-116 cells assessed as early apoptotic cells at 1 uM incubated for 72 hrs by APC-Annexin-V/7-AAD staining based flow cytometry (reference value: 1.16%). In kind it is functional.
Data set [12] in a line: Metabolic stability in Beagle dog liver microsomes assessed as compound remaining incubated for 45 mins in presence of NADPH by LC-MS/MS analysis. In kind it is ADME, Canis lupus familiaris, Microsome. Conditions: 0.75 h.
Data set [13] relates to MIA PaCa-2. In words: Induction of apoptosis in human MIA PaCa-2 cells assessed as live cells at 1 uM incubated for 72 hrs by APC-Annexin-V/7-AAD staining based flow cytometry (reference value: 97.7%). It is filed as functional.
For data set [14], the system named is HCT-116. In words: Induction of apoptosis in human HCT-116 cells assessed as late apoptotic cells at 1 uM incubated for 72 hrs in presence of geranylgeraniol by APC-Annexin-V/7-AAD staining based flow cytometry (reference value: 0%). In kind it is functional.
Data set [15] in a line: Toxicity in NSG mouse xenografted with human MIA PaCa-2 cells assessed as reduction in mobility at 3 mg/kg, ip administered 3 times a week for 26 days and measured daily. In kind it is organism-based. Conditions: in vivo, time 26 day.
Data set [16] in a line: Hepatotoxicity in male NSG mouse xenografted with human RPMI-8226 cells assessed as single-cell necrosis at 3 mg/kg, ip administered 3 times a week for 26 days and measured 48 hrs post last dose by H and E staining based assay. It is filed as toxicity, organism-based. Conditions: in vivo, 672 h, time 28 day.
A short description of data set [17]: Toxicity in NSG mouse xenografted with human MIA PaCa-2 cells assessed as appearance of skin lesions at 3 mg/kg, ip administered 3 times a week for 26 days and measured daily. It is filed as organism-based. Conditions: in vivo, time 26 day.

Active and inactive are the calls of the source. The calls are words filed in the database; no cut-off is given here.

Take `Cn1ncc2c(NC(P(=O)(O)O)P(=O)(O)O)nc(-c3cccc(C(=O)Nc4ccc(C(F)(F)F)cc4)c3)nc21`: the Activity in the data set on HCT-116 [1] is on record as around 50%; in data set [2], “Non-Toxic”; in data set [3], “Non-Toxic”; in data set [4], 96 IU/L; in [7], “Non-Toxic”; in data set [9], “Non-Toxic”. Further, the Activity in the data set with HCT-116 [11] was 20.7%; in the data set with MIA PaCa-2 [13], 32.1%; in the data set on HCT-116 [14], 2.17%; in data set [15] it was “Non-Toxic”; in data set [16], “Non-Toxic”; in data set [17], “Non-Toxic”. The same molecule registered an AUC(0-t) at 24 h in data set [5] of 254 µg·h/mL. For the same molecule, the outcome with MIA PaCa-2 [6], with RPMI-8226, with KMS-12-PE and in the data set listed under Mus musculus was Active. In addition, the inhibition at 72 h, 10 µM in data set [8] is 0%. Besides, the inhibition result in data set [10] was “Dose-Dependent Effect”. For the same molecule, in [12], the Stability is given as 87.7%.

The record behind these values is ChEMBL document CHEMBL5375954, “Discovery and Evaluation of C6-Substituted Pyrazolopyrimidine-Based Bisphosphonate Inhibitors of the Human Geranylgeranyl Pyrophosphate Synthase and Evaluation of Their Antitumor Efficacy in Multiple Myeloma, Pancreatic Ductal Adenocarcinoma, and Colorectal Cancer” (J Med Chem, 2023).
